Source: US8435950B2, “Anti-aging peptides and cosmetic and/or pharmaceutical composition containing same” (ISP Investments, priority 2009, dated 2013)
Where no end group is shown, it is not given here.

Columns and labels:
Per-1 protein [1] = test: Ex vivo immunolabeling of Per-1 protein in skin biopsies; format: cell-based; conditions: human skin ex vivo, peptide diluted to 1%, topical, 48 hr
Protocol: (§1) A study of the activating effect of the peptide SEQ ID no.1 was carried out by evaluating the expression of Clock and Per-1 proteins in skin biopsies ex vivo.
(§2) Ex vivo studies by immunolabeling have made it possible to evidence the expression of Clock and Per-1 proteins in skin samples. Samples of human skin are cultured at the air/liquid interface. The peptide SEQ ID no.1 diluted to 1% (from a 10^−4M solution) is applied topically to these samples for 48 hr at a rate of two times per 24 hr.
(§3) Skin samples not treated with the peptide SEQ ID no.1 serve as a control. The skin samples are fixed with 10% formaldehyde and enclosed in paraffin. Sectional cuts of 3 μm are then made with a microtome. The immunolabeling is carried out after removal of the paraffin and unmasking of the antigenic sites.
The immunolabeling for the Per-1 protein is carried out by a polyclonal antibody (Cosmobio) diluted 1/100 and a secondary antibody diluted 1/50 and coupled to a fluorochrome.
(§4) The slides are then mounted in a suitable medium and observed under epifluorescence microscope (Nikon Eclipse E600).

Clock protein [2] = test: Immunohistochemistry (immunolabeling) of Clock protein in cultured fibroblasts; format: cell-based; conditions: 18 hr, peptide diluted 1% (from a 10^-4M solution), versus untreated
Protocol: (§5) A study of the activating effect of the peptide SEQ ID no.1 was carried out by evaluating the expression of the Clock protein by western blot in cultured fibroblasts and by immunohistochemistry by labeling the Clock protein by means of immunolabeling. The technique of western blotting is a semi-quantitative method which makes it possible to evaluate the level of Clock protein in dermal cells.
Cultured fibroblasts are cultivated in 8-well chambers (labteck) at 37° C. in a humidified atmosphere containing 5% CO2 for 18 hr in the presence or absence of the peptide SEQ ID no.1, diluted 1% (from a 10^−4M solution). Untreated cells are cultivated at the same time and serve as a control. On the day of labeling the cells are rinsed, fixed in a mixture (2% glutaraldehyde—2% formaldehyde) for 3 minutes and then rinsed. The primary antibody (ABcam), diluted 1/250 is applied for 1 hour and a secondary antibody, diluted 1/50 and coupled to a fluorochrome is applied for 1 hour. The cells are then mounted between a slide and cover glass in a suitable mounting medium and observed under epifluorescence microscope.

Clock protein [3] = test: Western blot of Clock protein expression in cultured fibroblasts; format: cell-based; conditions: 16 hr, peptide diluted to 1% (from a 10^-4M solution), untreated control = 100%, Experiment 1
Protocol: as §5
Cultured fibroblasts are cultivated in containers with a diameter of 100 mm at 37° C. in a humidified atmosphere containing 5% CO2 for 16 hr in the presence or absence of the peptide SEQ ID no.1, diluted to 1% (from a 10^−4M solution). The cells are rinsed and then removed from the support with the aid of an extraction buffer (20 mM TRIS, 150 mM NaCl, 10 mM EDTA, 0.2% triton […]) in the presence of a cocktail of protease inhibitors (Sigma). The proteins thus extracted are centrifuged at 4° C. at 10000 rpm, before being dosed by the BCA protein dosing kit (Pierce). The cellular lysates are mixed with a denaturing buffer and subjected to SDS-PAGE electrophoresis. The gel used is 4-12% Nupage (Invitrogen). The proteins are then transferred to a nitrocellulose membrane (Pal corporation). […] The quantitative evaluation of the proteins present in the cells was carried out using the chemiimager software (Alpha innotech Corporation USA).

Clock protein [4] = test: Ex vivo immunolabeling of Clock protein in skin biopsies aged artificially during culture; format: cell-based, human
Protocol: (§6) A study of the activating effect of the peptide SEQ ID no.1 was carried out by evaluating the expression of Clock and Per-1 proteins in skin models, aged artificially during culture. The analysis was carried out after 62 hr and 134 hr of culturing.
as §2, with “samples aged during culture.” for “samples.”, “interface for 62 hr and 134 hr.” for “interface.”, “samples” for “samples for 48 hr”, “day during the period of the experiment.” for “24 hr.”
as §3, with “are” for “are then”, “sites. The immunolabeling for the Clock protein is carried out by means of an antibody (ABcam) diluted 1/250 and a secondary antibody diluted 1/50 and coupled to a fluorochrome.” for “sites.”
as §4

Per-1 protein [5] = test: Ex vivo immunolabeling of Per-1 protein in skin biopsies aged artificially during culture; format: cell-based, human; conditions: after 62 hr of treatment
Protocol: as §6
as §2, with “samples aged during culture.” for “samples.”, “interface for 62 hr and 134 hr.” for “interface.”, “samples” for “samples for 48 hr”, “day during the period of the experiment.” for “24 hr.”
as §3, with “are” for “are then”, “sites. The immunolabeling for the Clock protein is carried out by means of an antibody (ABcam) diluted 1/250 and a secondary antibody diluted 1/50 and coupled to a fluorochrome.” for “sites.”
The immunolabeling for the Per-1 protein is carried out by a polyclonal antibody (Cosmobio) diluted 1/100 and a secondary antibody diluted 1/50 and coupled to a fluorochrome. […]

Clock protein [6] = test: Ex vivo immunolabeling of Clock protein in skin biopsies; format: cell-based; conditions: human skin ex vivo, peptide diluted to 1%, topical, 48 hr
Protocol: as §1, §2, §3
The immunolabeling for the Clock protein is carried out by means of an antibody (ABcam) diluted 1/250 and a secondary antibody diluted 1/50 and coupled to a fluorochrome.
as §4

skin biopsies = test: Protective effect on morphology of skin biopsies during aging (hematoxyline/eosin histology); format: cell-based, human; conditions: 62 and 134 h culture, peptide diluted to 1% topically twice per day; untreated skin damaged
Protocol: A study of the protective effect of the peptide SEQ ID no.1 was carried out in parallel by evaluating the damage caused by aging at 62 hr and 134 hr by way of immunohistology by means of colouration of sectional cuts of skin.
Samples of human skin are placed in culture at the air/liquid interface. The peptide SEQ ID no.1 diluted to 1% (from a 10^−4M solution) is applied topically to these samples for 62 hr and 134 hr. The application is renewed twice per day during the period of the experiment. Untreated skin samples serve as a control during the experiment. The skin samples are fixed with 4% formaldehyde and enclosed in paraffin. Sectional cuts of 3 μm are made with a microtome. The tissues are coloured using hematoxyline (which colours the cell nuclei blue-black) and eosin, which is specific to the colouration of cytoplasms. The morphological structure of the biopsies is then assessed under transmission microscope.

Ser-Pro-Leu-Gln-NH2 (SPLQ-NH2) [SEQ ID no.1]
Amount of Per-1 protein compared with untreated skin (Per-1 protein [1]): greater | Expression of the Clock protein by labeling in fibroblasts (Clock protein [2]): increase in the expression of the Clock protein | Intensity (%) of Clock protein, western blot (Clock protein [3]): 179% | Labeling of the Clock protein compared to untreated control (Clock protein [4]; after 62 hr of culturing): increased | Labeling of the Clock protein compared to untreated control skin (Clock protein [4]; after 134 hr): largely increased | Expression of the PER-1 protein compared to untreated (Per-1 protein [5]): increased | Amount of Clock protein compared with untreated skin (Clock protein [6]): slightly greater | Morphological structure of skin biopsies / damage caused by aging (skin biopsies): well-preserved morphological structure
